Results published in US20040250469A1, “Method for marking hydrocarbons with substituted anthraquinones” (priority 2003, published 2004).

Columns and labels:
[1] = Absorption maximum and extinction measurement (absorbance, 1 cm path length, 10 mg/L solutions); format: physicochemical; settings: for extinction value: 10 mg/L solution, 1 cm path length; for molar extinction coefficient (ε): at λmax, toluene
Method: All percentages are weight percentages, unless otherwise indicated. Concentrations in parts per million (“ppm”) are calculated on a weight/volume basis. When a solvent is not specified for measurement of an absorption maximum, a hydrocarbon solvent is preferred. Extinction values are determined by measuring absorption in absorbance units (“AU”) with a 1 cm path length on 10 mg/L solutions. The term “petroleum hydrocarbons” refers to products having a predominantly hydrocarbon composition, although they may contain minor amounts of oxygen, nitrogen, sulfur or phosphorus; petroleum hydrocarbons are derived from petroleum refining processes; they include, for example, lubricating oil, hydraulic fluid, brake fluid, gasoline, diesel fuel, kerosene, jet fuel and heating oil. An “alkyl” group is a hydrocarbyl group having from one to twenty carbon atoms in a linear, branched or cyclic arrangement. Alkyl groups optionally have one or more double or triple bonds. Substitution on alkyl groups of one or more halo, hydroxy or alkoxy groups is permitted; alkoxy groups may in turn be substituted by one or more halo substituents. Preferably, alkyl groups have no halo or alkoxy substituents, and most preferably, alkyl groups are saturated and unsubstituted. A “heteroalkyl” group is an alkyl group in which at least one carbon has been replaced by O, NR, or S, wherein R is hydrogen, alkyl, aryl or aralkyl. An “aryl” group is a substituent derived from an aromatic hydrocarbon compound. An aryl group has a total of from six to twenty ring atoms, and has one or more rings which are separate or fused. An “aralkyl” group is an “alkyl” group substituted by an “aryl” group. A “heterocyclic” group is a substituent derived from a heterocyclic compound having from five to twenty ring atoms, at least one of which is nitrogen, oxygen or sulfur. […] Substitution on aryl or heterocyclic groups of one or more of the following groups: halo, cyano, nitro, hydroxy, alkoxy, alkyl, heteroalkyl, alkanoyl, amino, or amino substituted by one or more of alkyl, aryl, aralkyl, heterocyclic, heteroalkyl or alkanoyl is permitted, with substitution by one or more halo groups being possible on alkyl, heteroalkyl, alkanoyl or alkoxy groups. […] In one preferred embodiment of the invention, aryl and heterocyclic groups are unsubstituted or substituted only by alkyl groups. An “aromatic heterocyclic” group is a heterocyclic group derived from an aromatic heterocyclic compound.
The absorption maxima, λmax, of several substituted anthraquinone dyes of formula (I), measured in xylene, are provided in the following table. For all of the dyes listed, R^4 and R^6 are hydrogen.

Solubility in xylene = format: physicochemical; settings: weight percentage
Method: A mixture of leuco-1,4,5,8-tetrahydroxyanthraquinone (5.91 g), sodium dithionite (1.09 g) and 1-hexanol (175.2 g) was stirred while adding 2-ethylhexylamine (24.08 g). The mixture was heated to reflux (148-152° C.), maintained at reflux for 6-6.5 hours, and then cooled to ambient temperature. The precipitate was collected and washed thoroughly with methanol and water, and dried. The yield of dried isolated product was 7.0 g. Approximately another 1.9 g was present in the mother liquor, for a total yield of 8.9 g (90%). This material has a maximum absorption band (λmax) at a wavelength of 692 nm in xylene, or 688 nm in cyclohexane, with an extinction value of 0.640 AU in xylene and 0.660 AU in cyclohexane for a 10 mg/L solution. The solubility of the title compound in xylene is approximately 20%.

Row | Compound | maximum absorption band (λmax) wavelength ([1]; in xylene) | extinction value ([1]; in xylene) | maximum absorption band (λmax) wavelength ([1]; in toluene) | further results
1 | CCCCNc1c(C#N)c(C#N)c(NCCCC)c2c1C(=O)c1ccccc1C2=O [Example 2, 1,4-di-(n-butylamino)-2,3-dicyanoanthraquinone] | 700 nm | 0.23 AU |  | 
2 | CCCCc1ccc(Nc2c(C#N)c(C#N)c(Nc3ccc(CCCC)cc3)c3c2C(=O)c2c(Nc4ccc(CCCC)cc4)c(C#N)c(C#N)c(Nc4ccc(CCCC)cc4)c2C3=O)cc1 [1,4,5,8-tetra(4′-n-butylphenylamino)-2,3,6,7-tetracyanoanthraquinone] | 900 nm | 0.19 AU |  | 
3 | CCCCC(CC)CNc1ccc(NCC(CC)CCCC)c2c1C(=O)c1c(O)ccc(O)c1C2=O (centres unmarked) [Example 1, 1,4-di-(2-ethylhexylamino)-5,8-dihydroxyanthraquinone] | 692 nm | 0.640 AU |  | maximum absorption band (λmax) wavelength ([1]; in cyclohexane): 688 nm; extinction value ([1]; in cyclohexane): 0.660 AU; λmax, nm ([1]; measured in xylene, dyes of formula (I), R^4 and R^6 hydrogen): 692 nm; solubility in xylene (Solubility in xylene): approximately 20%
4 | CCCCc1ccc(Nc2ccc(Nc3ccc(CCCC)cc3)c3c2C(=O)c2c(Nc4ccc(CCCC)cc4)c(C#N)c(C#N)c(Nc4ccc(CCCC)cc4)c2C3=O)cc1 [1,4,5,8-tetra-(4′-n-butylphenylamino)-2,3-dicyanoanthraquinone] | 835 nm | 0.342 AU |  | 

Now from value to compound, other results behind:

Row | maximum absorption band (λmax) wavelength ([1]; in xylene) | extinction value ([1]; in xylene) | maximum absorption band (λmax) wavelength ([1]; in toluene) | Compound | further results
5 |  |  | 675 nm | CCCCc1ccc(Nc2cccc3c2C(=O)c2c(Nc4ccc(CCCC)cc4)ccc(Nc4ccc(CCCC)cc4)c2C3=O)cc1 [Example 4, 1,4,5-tri(4-n-butylphenylamino)anthraquinone] | 
6 |  |  | 750 nm | O=C1c2c(Nc3ccccc3)ccc(Nc3ccccc3)c2C(=O)c2c(Nc3ccccc3)ccc(Nc3ccccc3)c21 [Example 5, 1,4,5,8-tetra(phenylamino)anthraquinone] | molar extinction coefficient (ε) [1]: ~30,500
7 |  |  | 762 nm | CCCCc1ccc(Nc2ccc(Nc3ccc(CCCC)cc3)c3c2C(=O)c2c(Nc4ccc(CCCC)cc4)ccc(Nc4ccc(CCCC)cc4)c2C3=O)cc1 [Example 6, 1,4,5,8-tetra(4-n-butylphenylamino)anthraquinone] | molar extinction coefficient (ε) [1]: ~36,900
